What was measured:
[1] = biological target: SERT (Homo sapiens, UniProt P31645); assay: hSERT radioligand binding assay (3H-citalopram); parameters: expressed in transfected cells; host or cells: HEK-293; conditions: hSERT membranes (HEK-293), 1.0 nM 3H-citalopram; for Ki: read-out: SERT pKi (converted)
Procedure: (§1) Membrane radioligand binding assays were used to measure inhibition of labeled ligand (^3H-citalopram or ^3H-nisoxetine or ^3H-WIN35428) binding to membranes prepared from cells expressing the respective human recombinant transporter (hSERT or hNET or hDAT) in order to determine the pKi values of test compounds at the transporters.
(§2) Recombinant human embryonic kidney (HEK-293) derived cell lines stably transfected with hSERT or hNET, respectively, were grown in DMEM medium supplemented with 10% dialyzed FBS (for hSERT) or FBS (for hNET), 100 μg/ml penicillin, 100 μg/ml streptomycin, 2 mM L-glutamine and 250 μg/ml of the aminoglycoside antibiotic G418, in a 5% CO2 humidified incubator at 37° C. When cultures reached 80% confluence, the cells were washed thoroughly in PBS (without […] and Mg^2+) and lifted with 5 mM EDTA in PBS. Cells were pelleted by centrifugation, resuspended in lysis buffer (10 mM Tris-HCl, pH7.5 containing 1 mM EDTA), homogenized, pelleted by centrifugation, then resuspended in 50 mM Tris-HCl, pH 7.5 and 10% sucrose at 4° C. Protein concentration of the membrane suspension was determined using a Bio-Rad Bradford Protein Assay kit. Membranes were snap frozen and stored at −80° C. Chinese hamster ovary membranes expressing hDAT (CHO-DAT) were purchased from PerkinElmer and stored at −80° C.
(§3) Binding assays were performed in a 96-well assay plate in a total volume of 200 μl assay buffer (50 mM Tris-HCl, 120 mM NaCl, 5 mM KCl, pH 7.4) with 0.5, 1, and 3 μg membrane protein, for SERT, NET and DAT, respectively.
(§4) Stock solutions (10 mM in DMSO) of test compound were prepared and serial dilutions made using Dilution Buffer (50 mM Tris-HCl, 120 mM NaCl, 5 mM KCl, pH 7.4, 0.1% BSA, 400 μM ascorbic acid).
(§5) Following a 60 minute incubation at 22° C. (or a period sufficient to reach equilibrium), the membranes were harvested by rapid filtration over a 96-well UniFilter GF/B plate, pretreated with 0.3% polyethyleneimine, and washed 6 times with 300 μl wash buffer (50 mM Tris-HCl, 0.9% NaCl, pH 7.5 at 4° C.). Plates were dried overnight at room temperature, ˜45 μl of MicroScint™-20 (Perkin Elmer) added and bound radioactivity quantitated via liquid scintillation spectroscopy. Inhibition curves and saturation isotherms were analyzed using GraphPad Prism Software package (GraphPad Software, Inc., San Diego, Calif.). IC50 values were generated from concentration response curves using the Sigmoidal Dose Response (variable slope) algorithm in Prism GraphPad. Kd and Bmax values for the radioligand were generated from saturation isotherms using the Saturation Binding Global Fit algorithm in Prism GraphPad. pKi (negative decadic logarithm of Ki) values for test compounds were calculated from the best-fit IC50 values, and the Kd value of the radioligand, using the Cheng-Prusoff equation (Cheng & Prusoff (1973) Biochem. Pharmacol. 22(23):3099-3108): Ki=IC50/(1+[L]/Kd), where [L]=concentration radioligand.

[2] = biological target: NET (Homo sapiens, UniProt P23975); assay: hNET radioligand binding assay (3H-nisoxetine); parameters: expressed in transfected cells; host or cells: HEK-293; conditions: hNET membranes (HEK-293), 1.0 nM 3H-nisoxetine; for Ki: read-out: NET pKi (converted)
Sequence of NET (P23975 whole entry): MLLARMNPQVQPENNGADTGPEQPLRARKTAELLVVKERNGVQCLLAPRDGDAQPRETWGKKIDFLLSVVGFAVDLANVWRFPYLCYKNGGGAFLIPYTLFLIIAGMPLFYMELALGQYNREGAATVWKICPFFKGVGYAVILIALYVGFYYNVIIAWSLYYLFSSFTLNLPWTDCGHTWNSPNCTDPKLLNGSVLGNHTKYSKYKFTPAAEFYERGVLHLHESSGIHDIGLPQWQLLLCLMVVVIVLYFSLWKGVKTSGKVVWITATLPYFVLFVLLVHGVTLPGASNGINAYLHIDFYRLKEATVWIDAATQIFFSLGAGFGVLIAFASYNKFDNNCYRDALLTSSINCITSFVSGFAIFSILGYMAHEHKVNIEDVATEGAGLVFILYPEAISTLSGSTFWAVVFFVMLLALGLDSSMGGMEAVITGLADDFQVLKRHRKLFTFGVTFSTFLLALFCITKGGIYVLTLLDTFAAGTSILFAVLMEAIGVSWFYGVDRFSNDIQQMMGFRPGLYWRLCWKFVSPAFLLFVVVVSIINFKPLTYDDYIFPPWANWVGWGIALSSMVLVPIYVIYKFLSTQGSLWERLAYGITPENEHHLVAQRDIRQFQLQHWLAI
Procedure: as §1, §2, §3, §4, §5

Sequence of SERT (P31645 whole entry): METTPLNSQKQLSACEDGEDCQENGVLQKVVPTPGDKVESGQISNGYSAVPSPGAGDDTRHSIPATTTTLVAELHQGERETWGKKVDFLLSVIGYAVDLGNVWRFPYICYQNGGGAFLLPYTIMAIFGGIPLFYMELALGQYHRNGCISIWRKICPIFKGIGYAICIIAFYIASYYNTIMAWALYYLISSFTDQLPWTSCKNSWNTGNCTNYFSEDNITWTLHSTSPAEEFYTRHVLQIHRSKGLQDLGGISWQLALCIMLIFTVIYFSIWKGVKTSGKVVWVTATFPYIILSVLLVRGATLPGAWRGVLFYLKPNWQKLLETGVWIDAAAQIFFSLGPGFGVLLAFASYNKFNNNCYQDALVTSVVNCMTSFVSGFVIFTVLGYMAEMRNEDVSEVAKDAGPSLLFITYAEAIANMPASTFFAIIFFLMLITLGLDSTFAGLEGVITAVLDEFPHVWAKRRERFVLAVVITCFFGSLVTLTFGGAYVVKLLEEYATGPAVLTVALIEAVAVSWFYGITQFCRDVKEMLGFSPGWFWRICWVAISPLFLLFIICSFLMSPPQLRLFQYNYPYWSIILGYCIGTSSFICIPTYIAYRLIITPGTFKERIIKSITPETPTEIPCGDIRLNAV

Structure (SMILES) | Ki [1] | Ki [2] | SERT pKi [1] | NET pKi [2]
Clc1cc(Cl)cc(O[C@@H](c2ccco2)[C@H]2CCNC2)c1 [Example 8-3, (S)-3-[(R)-(3,5-Dichlorophenoxy)furan-2-yl-methyl]pyrrolidine] | ≤ 100 nM | ≤ 100 nM |  | 
Cc1cc(Cl)c(OC(c2nccs2)C2CCNC2)c(Cl)c1.O=C(O)C(F)(F)F (mixture of isomers) [Example 5-12, 2-[((S)-(2,6-Dichloro-4-methylphenoxy)-pyrrolidin-3-yl-methyl]thiazole] |  |  | ≧7.0 | ≧5.0
Clc1cccc(O[C@@H](c2ncco2)[C@H]2CCNC2)c1.O=C(O)C(F)(F)F [6-45] |  |  | ≧5.0 | ≧7.0
COC(=O)c1cc(Cl)ccc1O[C@@H](c1ncco1)[C@H]1CCNC1.O=C(O)C(F)(F)F [6-29] |  |  | ≧7.0 | ≧7.0
COc1cc(Cl)ccc1O[C@@H](c1cncc(F)c1)[C@H]1CCNC1 [Example 1] | ≤ 100 nM | ≤ 100 nM |  | 
Fc1ccc(OC(c2nccs2)C2CCNC2)c(F)c1F [Example 5-2, 2-[((S)-((S)-Pyrrolidin-3-yl-(2,3,4-trifluorophenoxy)methyl]thiazole] |  | ≤ 100 nM | ≧7.0 | 
Fc1cnc(O[C@@H](c2ccccc2)[C@H]2CCNC2)c(F)c1.O=C(O)C(F)(F)F [14-17] |  |  | ≧5.0 | ≧7.0
Fc1cc(F)c(F)c(OC(c2nccs2)C2CCNC2)c1F [Example 5-4, 2-[((S)-((S)-Pyrrolidin-3-yl-(2,3,5,6-tetrafluorophenoxy)methyl]thiazole] | ≤ 10000 nM | ≤ 100 nM |  | 
Clc1cc(Cl)c(O[C@@H](c2ncco2)[C@H]2CCNC2)cc1Cl [6-1] | ≤ 100 nM | ≤ 100 nM |  | 
COc1ncccc1O[C@@H](c1ccccc1)[C@H]1CCNC1.O=C(O)C(F)(F)F [15-17] |  |  | ≧7.0 | ≧7.0
Clc1ccc(Cl)c(O[C@@H](c2cccnc2)[C@H]2CCNC2)c1Cl [Example 2-67, 3-[(R)-(S)-Pyrrolidin-3-yl-(2,3,6-trichlorophenoxy)methyl]pyridine] | ≤ 100 nM | ≤ 100 nM |  | 
Cc1cc(Cl)ccc1O[C@H](c1ncco1)[C@H]1CCNC1 [6-35] | ≤ 100 nM | ≤ 10000 nM |  | 
Clc1cncc(C(Oc2cc(Cl)c(Cl)cc2Cl)C2CCNC2)c1 [Example 2-1, 3-Chloro-5-[(R)-(S)-pyrrolidin-3-y1-(2,4,5-trichlorophenoxy)methyl]pyridine] | ≤ 100 nM | ≤ 10000 nM |  | 
Fc1ccc(O[C@@H](c2ccccc2)[C@H]2CCNC2)nc1.O=C(O)C(F)(F)F [14-29] |  |  | ≧7.0 | ≧7.0
Clc1cccc(Cl)c1O[C@H](c1ccncc1)[C@H]1CCNC1 [Example 3-5, 4-[(S)-(2,6-Dichlorophenoxy)-(S)-pyrrolidin-3-yl-methyl]pyridine] | ≤ 100 nM | ≤ 100 nM |  | 
COc1cc(Cl)ccc1O[C@@H](c1ncco1)[C@H]1CCNC1 [6-39] |  |  | ≧7.0 | ≧7.0
Fc1ccc(F)c(O[C@@H](c2cncnc2)[C@H]2CCNC2)c1Cl.O=C(O)C(F)(F)F [12-1] |  |  | ≧5.0 | ≧7.0
O=C(O)C(F)(F)F.c1ccc(-c2ccccc2O[C@@H](c2ncco2)[C@H]2CCNC2)cc1 [6-42] |  |  | ≧5.0 | ≧7.0
Clc1cc(Cl)cc(O[C@H](c2nccs2)[C@H]2CCNC2)c1 [Example 5-27] |  |  | ≧7.0 | ≧7.0
Clc1cc(O[C@@H](c2ccccc2)[C@H]2CCNC2)cc(Cl)n1.O=C(O)C(F)(F)F [16-2] |  |  | ≧7.0 | ≧5.0
Brc1ccc(O[C@@H](c2ccccc2)[C@H]2CCNC2)nc1.O=C(O)C(F)(F)F [14-20] |  |  | ≧7.0 | ≧7.0
Clc1ccc(O[C@@H](c2ncco2)[C@H]2CCNC2)cc1.O=C(O)C(F)(F)F [6-47] |  |  | ≧7.0 | ≧7.0

Structure (SMILES) | Ki [1] | Ki [2] | SERT pKi [1] | NET pKi [2]
Clc1cnc(OC(c2ccccc2)C2CCNC2)c(Cl)c1 (stereo not shown) [14-14] |  |  | ≧7.0 | ≧7.0
Fc1cncc([C@H](Oc2c(F)cc(F)cc2F)[C@H]2CCNC2)c1 [Example 2-35, 3-Fluoro-5-[(R)-(S)-pyrrolidin-3-yl-(2,4,6-trifluorophenoxy)-methyl]pyridine] | ≤ 100 nM | ≤ 100 nM |  | 
Fc1cc(F)c(Cl)c(O[C@H](c2cncc(Cl)c2)[C@H]2CCNC2)c1Cl [Example 2-4, 3-Chloro-5-[(S)-(2,6-dichloro-3,5-difluorophenoxy)-(S)-pyrrolidin-3-yl-methyl]-pyridine] | ≤ 100 nM | ≤ 10000 nM |  | 
Fc1cc(F)c(O[C@@H](c2cncc(Cl)c2)[C@H]2CCNC2)c(F)c1 [Example 2-33, 3-Chloro-5-[(R)-(S)-pyrrolidin-3-yl-(2,4,6-trifluorophenoxy)methyl]pyridine] | ≤ 100 nM | ≤ 100 nM |  | 
Fc1cc(F)c(Cl)c(O[C@@H](c2cnccn2)[C@H]2CCNC2)c1Cl.O=C(O)C(F)(F)F [10-1] |  |  | ≧7.0 | ≧7.0
Fc1ncccc1O[C@@H](c1ccccc1)[C@H]1CCNC1.O=C(O)C(F)(F)F [15-8] |  |  | ≧7.0 | ≧7.0
FC(F)(F)c1cccnc1O[C@H](c1ccccc1)[C@@H]1CCNC1.O=C(O)C(F)(F)F [14-33] |  |  | ≧5.0 | ≧5.0
Cc1cccc(Cl)c1O[C@@H](c1ncco1)[C@H]1CCNC1 [6-26] |  |  | ≧7.0 | ≧7.0
Fc1ccc(F)c(O[C@H](c2cncc(Cl)c2)[C@H]2CCNC2)c1Cl [Example 2-7, 3-Chloro-5-[(S)-(2-chloro-3,6-difluorophenoxy)-(S)-pyrrolidin-3-yl-methyl]-pyridine] | ≤ 100 nM | ≤ 10000 nM |  | 
Clc1cc(Cl)cc(O[C@H](c2ncco2)[C@H]2CCNC2)c1 [6-44] | ≤ 100 nM | ≤ 100 nM |  | 
Clc1cc(O[C@@H](c2ccccc2)C2CCNC2)ccn1 (stereo partly shown) [16-3] | ≤ 100 nM | ≤ 10000 nM |  | 
Fc1cncc([C@@H](Oc2c(Cl)c(F)cc(F)c2Cl)[C@H]2CCNC2)c1 [Example 2-42, 3-[(S)-(2,6-Dichloro-3,5-difluorophenoxy)-(S)-pyrrolidin-3-yl-methyl]-5-fluoropyridine] | ≤ 100 nM | ≤ 10000 nM |  | 
Clc1cccc(O[C@@H](c2ncco2)[C@H]2CCNC2)c1Cl.O=C(O)C(F)(F)F [6-49] |  |  | ≧7.0 | ≧7.0
Cc1cc(Br)cnc1O[C@@H](c1ccccc1)[C@H]1CCNC1.O=C(O)C(F)(F)F [14-21] |  |  | ≧7.0 | ≧7.0
Cc1ccccc1O[C@@H](c1ncco1)[C@H]1CCNC1 [6-33] | ≤ 10000 nM | ≤ 100 nM |  | 
Cc1ccccc1C(Oc1cccc2ccccc12)C1CCNC1 (stereo not shown) [21-3] | ≤ 100 nM | ≤ 100 nM |  | 
Fc1cc(F)c(O[C@H](c2ccncc2)[C@H]2CCNC2)c(F)c1 [Example 3-2, 4-[(S)-(S)-Pyrrolidin-3-yl-(2,4,6-trifluorophenoxy)methyl]pyridine] | ≤ 100 nM | ≤ 100 nM |  | 
Fc1cc(O[C@@H](c2ccccc2)[C@H]2CCNC2)cnc1F.O=C(O)C(F)(F)F [15-21] |  |  | ≧5.0 | ≧7.0
COc1ccccc1O[C@@H](c1cnccn1)[C@H]1CCNC1.O=C(O)C(F)(F)F [10-7] |  |  | ≧5.0 | ≧7.0
O=C(O)C(F)(F)F.c1ccc(COc2ccccc2O[C@@H](c2ncco2)[C@H]2CCNC2)cc1 [6-36] |  |  | ≧5.0 | ≧7.0
Fc1cncc([C@H](Oc2ccc3ccccc3c2)[C@H]2CCNC2)c1.O=C(O)C(F)(F)F [20-3] |  |  | ≧7.0 | ≧7.0
Cc1ccc(O[C@@H](c2ncco2)[C@H]2CCNC2)cc1 [6-48] | ≤ 100 nM | ≤ 100 nM |  | 
